Results on 35 compounds are retold here after patent publication US20250136612A1, “4',5'-DIHYDROSPIRO[PIPERIDINE-4,7'-THIENO[2,3-C]PYRAN] DERIVATIVES AS INHIBITORS OF APOL1 AND METHODS OF USING SAME” (VERTEX PHARMACEUTICALS INCORPORATED, priority 2022, published 2025).

This experiment has as its target T1, APOL1 (Homo sapiens, UniProt O14791).
T1 sequence (O14791 1-398 S342G/I384M): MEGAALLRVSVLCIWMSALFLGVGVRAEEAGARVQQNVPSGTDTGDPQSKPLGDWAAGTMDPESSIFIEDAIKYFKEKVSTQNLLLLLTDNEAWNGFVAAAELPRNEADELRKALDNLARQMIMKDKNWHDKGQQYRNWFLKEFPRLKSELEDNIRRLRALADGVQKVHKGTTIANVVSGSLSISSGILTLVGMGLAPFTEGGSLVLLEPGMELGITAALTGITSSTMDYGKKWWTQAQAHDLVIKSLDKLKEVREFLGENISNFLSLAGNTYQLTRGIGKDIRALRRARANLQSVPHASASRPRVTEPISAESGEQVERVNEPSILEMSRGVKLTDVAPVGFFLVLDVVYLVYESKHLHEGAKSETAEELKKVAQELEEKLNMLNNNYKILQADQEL
Description: MultiTox-Fluor Multiplex Cytotoxicity Assay in tet-inducible APOL1 T-REx-HEK293 cells. The experiment is classed as cell-based. As to conditions: 50 ng/mL tet, 24 hours, ratio of dead to live cells, read-out: IP50 (i.e., IC50 for cell proliferation). How it is done: The MultiTox-Fluor Multiplex Cytotoxicity Assay is a single-reagent-addition, homogeneous, fluorescence assay that measures the number of live and dead cells simultaneously in culture wells. The assay measures cell viability and cytotoxicity by detecting two distinct protease activities. The live-cell protease activity is restricted to intact viable cells and is measured using a fluorogenic, cell-permeant peptide glycyl-phenylalanylamino fluorocoumarin (GF-AFC) substrate. The substrate enters intact cells, where it is cleaved to generate a fluorescent signal proportional to the number of living cells. […] A second, cell-impermeant, fluorogenic peptide substrate (bis-AAF-R110 Substrate) is used to measure dead-cell protease that has been released from cells that have lost membrane integrity. A ratio of dead to live cells is used to normalize data.
Briefly, the tet-inducible transgenic APOL1 T-REx-HEK293 cell lines were incubated with 50 ng/mL tet to induce APOL1 in the presence of 3-(2-(4-fluorophenyl)-1H-indol-3-yl)-N-((3S,4R)-4-hydroxy-2-oxopyrrolidin-3-yl)propenamide at 10.03, 3.24, 1.13, 0.356, 0.129, 0.042, 0.129, 0.0045, 0.0015, 0.0005 μM in duplicate for 24 hours in a humidified 37° C. incubator. The MultiTox reagent was added to each well and placed back in the incubator for an additional 30 minutes. The plate was read on the EnVision plate reader. A ratio of dead to live cells was used to normalize, and data was imported, analyzed, and fit using Genedata Screener (Basel, Switzerland) software. Data was normalized using percent of control, no tet (100% viability), and 50 ng/mL tet treated (0% viability),and fit using Smart Fit. The reagents, methods, and complete protocol for the MultiTox assay are described below.
Human embryonic kidney (HEK293) cell lines containing a tet-inducible expression system (T-REx™; Invitrogen, Carlsbad, CA) and Adeno-associated virus site 1 pAAVS1-Puro-APOL1 G0 or pAAVS1-Puro-APOL1 G1 or pAAVS1-Puro-APOL1 G2 Clones G0 DC2.13, G1 DC3.25, and G2 DC4.44 were grown in a T-225 flask at ˜90% confluency in cell growth media (DMEM, 10% Tet-free FBS, 2 mM L-glutamine, 100 Units/mL penicillin-streptomycin, 5 μg/mL blasticidin S HCl, 1 μg/mL puromycin dihydrochloride). Cells were washed with DPBS and then trypsinized to dissociate from the flask. Media was used to quench the trypsin, cells were then pelleted at 200 g and resuspended in fresh cell assay media (DMEM, 2% Tet-free FBS, 2 mM L-glutamine, 100 Units/mL penicillin-streptomycin). Cells were counted and diluted to 1.17×10^6 cells/mL. 20 μL of cells (23,400/well) were dispensed in every well of a 384-well Poly-D-Lysine coated plate using the Multidrop dispenser. The plates were then incubated at room temperature for one hour.
Tetracycline is needed to induce APOL1 expression. 1 mg/mL tet stock in water was diluted to 250 ng/mL (5×) in cell assay media. 60 μL of cell assay media (no tet control) was dispensed in columns 1 and 24, and 60 μL of 5×tet in 384-PP-round bottom plate was dispensed in columns 2 to 23 with the Multidrop dispenser.
Assay ready plates from the Global Compound Archive were ordered using template 384_APOL1Cell_DR10n2_50 uM_v3. Compounds were dispensed at 200 nL in DMSO. The final top concentration was 10 μM with a 10 point 3-fold dilution in duplicate in the MultiTox assay.
20 μL was transferred from the 5×tet plate to the ARP and mixed, then 5 μL of 5×tet and the compounds were transferred to the cell plate and mixed using the Bravo. The cell plate was placed in the humidified 37° C. 5% CO2 incubator for 24 hours.
The MultiTox-Fluor Multiplex Cytotoxicity Assay was performed in accordance with the manufacturer's protocol. After cells were incubated with tet and compound for 24 hours, 25 μL of 1×MultiTox reagent was added to each well using the Multidrop dispenser; the plates were placed on a plate shaker (600 rpm) for 2 minutes, then centrifuged briefly and placed back in the 37° C. incubator for 30 minutes. […]
`Cc1cc([C@@H]2C[C@]3(CCN2)OCC(O)c2cc(Cl)sc23)on1` (stereo partly drawn) [Compound 34, (2S,4S)-2′-chloro-2-(3-methylisoxazol-5-yl)-4′,5′-dihydrospiro[piperidine-4,7′-thieno[2,3-c]pyran]-4′-ol]: the IC50 lay within 100 to 500 nM. With `Cn1cc([C@@H]2C[C@]3(CCN2)OCC(O)c2cc(Cl)sc23)nn1` (stereo partly drawn) [Compound 35, (2S,4S)-2′-chloro-2-(1-methyl-1H-1,2,3-triazol-4-yl)-4′,5′-dihydrospiro[piperidine-4,7′-thieno[2,3-c]pyran]-4′-ol], the IC50 lay in the range of 100 to 500 nM. The result for `Cn1cc([C@@H]2C[C@]3(CCN2)OCC(O)c2cc(Cl)sc23)nn1` (stereo partly drawn) [Compound 36, (2S,4S)-2′-chloro-2-(1-methyl-1H-1,2,3-triazol-4-yl)-4′,5′-dihydrospiro[piperidine-4,7′-thieno[2,3-c]pyran]-4′-ol] reads 100 to 500 nM; that for `Cn1cc([C@@H]2C[C@]3(CCN2)OCC(=O)c2cc(Cl)sc23)nn1` [Compound 41, (2S,4S)-2′-chloro-2-(1-methyltriazol-4-yl)spiro[piperidine-4,7′-thieno[2,3-c]pyran]-4′-one], 100 to 500 nM. The result for `[2H]C1([2H])CO[C@]2(CCN[C@H](c3cn(C)nn3)C2)c2sc(Cl)cc21` [Compound 43, (2'S, 7S)-2-chloro-4,4-dideuterio-2′-(1-methyltriazol-4-yl)spiro[5H-thieno[2,3-c]pyran-7,4′-piperidine]] reads 100 to 500 nM; that for `Cn1cc(C2CC3(CCN2)OCCc2cc(C4CC(F)(F)C4)sc23)nn1` (centres unmarked) [Compound 46, 2-(3,3-difluorocyclobutyl)-2′-(1-methyltriazol-4-yl)spiro[4,5-dihydrothieno[2,3-c]pyran-7,4′-piperidine]], 100 to 500 nM. Consider `Cn1cc(C2CC3(CCN2)OCC(O)c2cc(C4CC(F)(F)C4)sc23)nn1` (centres unmarked) [Compound 47], for which the IC50 lay within 500 to 1000 nM. The result for `Cn1cc([C@@H]2CC3(CCN2)OCCc2cc(CC(F)(F)F)sc23)nn1` (some centres unmarked) [Compound 48] reads 100 to 500 nM; that for `Cn1cc(C2CC3(CCN2)OCCc2cc(CC(F)F)sc23)nn1` (centres unmarked) [Compound 49], less than 100 nM; that for `FC(F)Cc1cc2c(s1)C1(CCNC(c3ccccc3)C1)OCC2` (centres unmarked) [Compound 50], 100 to 500 nM. The result for `Cn1cc([C@@H]2CC3(CCN2)OCCc2c3sc(C(F)(F)F)c2CO)nn1` (stereo partly drawn) [Compound 51, ((2S)-2-(1-methyl-1H-1,2,3-triazol-4-yl)-2′-(trifluoromethyl)-4′,5′-dihydrospiro[piperidine-4,7′-thieno[2,3-c]pyran]-3′-yl)methanol] reads less than 100 nM; that for `NC(=O)c1cccc(-n2cc([C@@H]3C[C@]4(CCN3)OCCc3cc(Cl)sc34)nn2)c1` [Compound 54, 3-(4-((2S,4S)-2′-chloro-4′,5′-dihydrospiro[piperidine-4,7′-thieno[2,3-c]pyran]-2-yl)-1H-1,2,3-triazol-1-yl)benzamide], less than 100 nM; that for `Clc1cc2c(s1)[C@@]1(CCN[C@H](c3cn(-c4ccccc4)nn3)C1)OCC2` [Compound 55, (2S,4S)-2′-chloro-2-(1-phenyl-1H-1,2,3-triazol-4-yl)-4′,5′-dihydrospiro[piperidine-4,7′-thieno[2,3-c]pyran]], 100 to 500 nM. In the case of `O=C1NCc2ccc(-n3cc([C@@H]4C[C@]5(CCN4)OCCc4cc(Cl)sc45)nn3)cc21` [Compound 56], the IC50 is less than 100 nM.

As for `NC(=O)c1cc(-n2cc([C@@H]3C[C@]4(CCN3)OCCc3cc(Cl)sc34)nn2)ccc1F` [Compound 57], the IC50 was less than 100 nM. The result for `CNC(=O)c1cc(-n2cc([C@@H]3C[C@]4(CCN3)OCCc3cc(Cl)sc34)nn2)ccc1OC` [Compound 58] reads 100 to 500 nM. With `NC(=O)c1ccc(-n2cc([C@@H]3C[C@]4(CCN3)OCCc3cc(Cl)sc34)nn2)cc1` [Compound 59] the figure was 100 to 500 nM. In the case of `CN1Cc2cc(-n3cc([C@@H]4C[C@]5(CCN4)OCCc4cc(Cl)sc45)nn3)ccc2C1=O` [Compound 60], the IC50 fell in the range of 100 to 500 nM.

On to `O=C1NCc2cc(-n3cc([C@@H]4C[C@]5(CCN4)OCCc4cc(Cl)sc45)nn3)ccc21` [Compound 61], for which the IC50 lay in the range of 100 to 500 nM. The result for `CN1Cc2ccc(-n3cc([C@@H]4C[C@]5(CCN4)OCCc4cc(Cl)sc45)nn3)cc2C1=O` [Compound 62] reads 100 to 500 nM; that for `Clc1cc2c(s1)[C@@]1(CCN[C@H](c3cn(-c4cccnc4)nn3)C1)OCC2` [Compound 63], 100 to 500 nM; that for `Clc1cc2c(s1)[C@@]1(CCN[C@H](c3cn(-c4ccncc4)nn3)C1)OCC2` [Compound 64], 100 to 500 nM. Turning to `Oc1ccc(-n2cc([C@@H]3C[C@]4(CCN3)OCCc3cc(Cl)sc34)nn2)cc1` [Compound 65], the IC50 fell in the range of 100 to 500 nM.

On to `COc1ccccc1-n1cc([C@@H]2C[C@]3(CCN2)OCCc2cc(Cl)sc23)nn1` [Compound 66], for which the IC50 lay within 100 to 500 nM. Consider `COc1ccc(-n2cc([C@@H]3C[C@]4(CCN3)OCCc3cc(Cl)sc34)nn2)cc1` [Compound 67], for which the IC50 was 100 to 500 nM. The result for `CN(C)C(=O)c1ccc(-n2cc([C@@H]3C[C@]4(CCN3)OCCc3cc(Cl)sc34)nn2)cc1` [Compound 68] reads 100 to 500 nM. The result for `Clc1cc2c(s1)[C@@]1(CCN[C@H](c3cn(-c4ccccn4)nn3)C1)OCC2` [Compound 69] reads 100 to 500 nM. With `Fc1cccc(-n2cc([C@@H]3C[C@]4(CCN3)OCCc3cc(Cl)sc34)nn2)c1` [Compound 70] the figure was 100 to 500 nM. In the case of `COc1cccc(-n2cc([C@@H]3C[C@]4(CCN3)OCCc3cc(Cl)sc34)nn2)c1` [Compound 71], the IC50 is 100 to 500 nM. With `Fc1ccc(-n2cc([C@@H]3C[C@]4(CCN3)OCCc3cc(Cl)sc34)nn2)cc1` [Compound 72] the figure was 500 to 1000 nM; with `CS(=O)(=O)CCn1cc([C@@H]2C[C@]3(CCN2)OCCc2cc(Cl)sc23)nn1` [Compound 73], 500 to 1000 nM; with `Fc1ccccc1-n1cc([C@@H]2C[C@]3(CCN2)OCCc2cc(Cl)sc23)nn1` [Compound 74], 500 to 1000 nM.

As for `Oc1ccccc1-n1cc([C@@H]2C[C@]3(CCN2)OCCc2cc(Cl)sc23)nn1` [Compound 75], the IC50 was in the range of 500 to 1000 nM. For the compound `COCCn1cc([C@@H]2C[C@]3(CCN2)OCCc2cc(Cl)sc23)nn1` [Compound 76], the IC50 was in the range of 500 to 1000 nM.

As to `Clc1cc2c(s1)[C@@]1(CCN[C@H](c3c[nH]nn3)C1)OCC2` [Compound 77], the IC50 fell in the range of 500 to 1000 nM.
